In PMC12648288, “Drastic Impact of Donor Substituents on Xanthenes in the PDT of Glioblastoma” (JACS Au, 2025):
Read-outs that look alike come from different tables or passages of the source.

How the values were obtained:
[1] = Absorption and emission spectra, fluorescence quantum yield; type: physicochemical; conditions: for ε (M^–1 cm^–1) / λabs (nm) / λems (nm): In PBS (pH 7.4, 1% DMSO); for φF (%) fluorescence quantum yield: Reference: methylene blue in MeOH (φF = 23%)
Description: First, the absorption and emission spectra of both PSs, NSeMorph and NSeAze, were recorded in PBS buffer (pH 7.4, 1% DMSO).
Photophysical Characterization
Fluorescence Quantum Yield
Fluorescence quantum yields of the samples were investigated using a fluorescence spectrometer (FLS 1000, Edinburgh Instruments) equipped with an integrating sphere accessory. A continuous-wave xenon lamp served as the excitation source, and the emitted fluorescence was detected with a standard photomultiplier (PMT-900) covering a wavelength range of 200-800 nm. During measurements, the PMT was cooled to - 20 °C using a built-in housing to reduce undesired dark current noise.
For quantum yield measurement, an integrating sphere (Edinburgh Instruments) was placed inside the spectrometer's sample compartment. The internal cavity of the sphere was coated with a PTFE-like material, enabling a reflectance of approximately […]
respectively. The sphere had two ports positioned 90° apart. The excitation beam was directed to the sample through the excitation port, and the fluorescence was collected from the emission port. The excitation port of the sphere included a lens to effectively focus the beam on the sample, while the emission port was an open aperture.
Prior to the experiments with the PSs, blank spectra were measured using the reference solvents (PBS, pH 7.4, 1% DMSO). For both measurements (blank and sample), two identical quartz cuvettes with equal volumes were used. Initially, the reference sample was placed inside the sphere, and the emission/excitation slits were adjusted to the excitation wavelength to ensure the PMT's response remained linear during measurements. To cover a scattering range, the emission scans started 20 nm below the actual excitation wavelengths and ended at 900 nm. Additionally, the step size and integration time of the measurements were set to 1 nm and 0.2 seconds, […]
Upon completing all emission measurements of the samples and references, the quantum yields of the samples were determined using the Fluoracle software. The built-in analysis tool calculates the quantum yield (QY) as: […]
where Es (EB) and Ss (SB) are the selected areas for the emitted and scattered signals

[2] = n-octanol/PBS distribution (LogP); type: physicochemical; conditions: Distribution coefficient in n-octanol/PBS solution
[3] = tested on: L929 healthy fibroblast cells; assay: MTT cell viability, dark and PDT; type: cell-based; conditions: Mus musculus
Description: The time- and concentration-dependent effects of NSeAze and NSeMorph on glioblastoma cells were determined by using the MTT assay (Figure S7). In this regard, U118MG and U87MG cells were administered with NSeMorph (0.5–20 μM) and NSeAze (0.01–2.5 μM) for 24 h to evaluate their dark toxicity. Before PDT application, both cell lines were treated as indicated for 1 h and then exposed to 660 nm LED light for 2 and 1 h, respectively (Figure ). Following overnight incubation, the resulting cell viability was calculated and compared to the effect of both compounds in the absence of irradiation. […]
Cell Culture and Treatment
Human glioblastoma cell lines (U118MG and U87MG) and healthy mouse fibroblast cells (L929) were cultured in DMEM high glucose medium supplemented with 10% fetal bovine serum (FBS), 2 mM glutamine, 1% penicillin/stremptomycin, 0.5% amphotericin B, and incubated at 37 °C with 5% CO2. NSeMorph and NSeAze were dissolved in cell culture-grade DMSO and further diluted in complete medium for experimental use. For phototoxicity analysis, cells were administered with NSeMorph […]
mW/cm2) irradiation for 2 h in NSeMorph-treated groups and 1 h in NSeAze-treated groups. Then, each group were incubated for further 24 h in the dark to allow for resting. On the other hand, the dark toxicity of both agents was detected following the same treatment under identical conditions without LED irradiation. To determine the involvement of distinct ROS types, cells were pretreated for 1 h with selective […]
scavengers prior to photosensitizer exposure. The scavengers included NAC (5 mM), NaN3 (5 mM), histidine (5 mM), Tiron (100 µM), mannitol (25 mM) and Trolox (25 µM).
Cell viability was then assessed following irradiation. For index calculations, all cells were treated with the increasing concentrations (0.5-500 µM) of NSeMorph and NSeAze for 24 h. Final DMSO concentrations were kept below 0.5% (v/v) in all […]
PI=IC50, dark /IC50, light
SI= IC50, light, healthy cells/IC50, light, cancer cells
TI= IC50, dark, healthy cells/IC50, light, cancer cells
The viability of cells treated with NSeMorph and NSeAze was determined with MTT (3-[4,5-dimethylthiazol-2-yl]-2,5-diphenyltetrazoliumbromide) assay. Following the administration of both compounds, the medium was discarded and cells were treated with fresh media containing MTT (0.5 mg/ml) for 2-4 h at 37 °C. Formazan crystals were then solubilized in 10% SDS in 0.01 N HCl, and absorbance was measured at 490 and 570 nm wavelength using microplate reader (Multiskan Sky, Thermo Scientific). Data were normalized to vehicle (DMSO)-treated controls. IC50 values were calculated using nonlinear regression analysis in GraphPad Prism 9.02 (GraphPad Software Inc.). All experiments were performed in technical and biological replicates

U118MG cells = assay: Lipid peroxidation (TBARS); type: cell-based, human; conditions: IC50 concentration, PDT, up to 24 h postirradiation, % of untreated control
Description: (§1) Further analysis was conducted to elucidate mitochondrial- or lysosomal-localization-dependent cell death mechanisms. For this purpose, lipid peroxidation, a major end product of ROS-mediated cellular damage, was assessed. […] Moreover, the pronounced rise in lipid peroxidation was predominantly evident during the 24 h resting stage rather than immediately after light exposure, as observed with NSeAze. The apparent increase in lipid peroxidation explains the damage to the membranous structures of cells, such as mitochondria, lysosomes, and plasma membranes (Figure a,b). This was further confirmed by the detection of free unsaturated lipid content of cells, which is released upon disruption of the membranous structures.
(§2) Determination of lipid peroxidation
(§3) The effect of NSeMorph and NSeAze on lipid peroxidation was investigated using thiobarbituric acid reactive substances (TBARS) method,1 which is based on measuring malondialdehyde (MDA) levels, the end-product of lipid peroxidation. For this purpose, cells were seeded in 6-well plates at a density of 1 × 10^6 cells/well and incubated overnight. Afterwards, both compounds were administered in IC50 values according to the above-mentioned PDT protocol. The resulting lipid peroxidation was measured following the immediate irradiation and after 24 h of resting stage. After the indicated time periods, cells were harvested and lysed with a RIPA cell lysis buffer (Merck, Germany). The lysates were then prepared according to the TBARS assay protocol. Briefly, the samples were mixed with 0.8% thiobarbituric acid prepared in 20% trichloroacetic acid solution and then incubated for 2 h at 95 °C. Absorbance of the resulting pink-to-red color was measured at 532 nm with a spectrophotometer (Thermo, Germany). Data were expressed as % compared to untreated control group and normalized to cell viability rates (n=6). […]

U87MG cells = assay: Lipid peroxidation (TBARS); type: cell-based, human; conditions: IC50 concentration, PDT, up to 24 h postirradiation, % of untreated control
Description: as §1, §2, §3

[4] = L929, 1 h incubation, 660 nm LED 2 h (NSeMorph) or 1 h (NSeAze), read-out: IC50 (light)
[5] = L929, dark, 24 h, read-out: IC50 (dark)

SMILES	ε (M^–1 cm^–1) [1]	λabs (nm) [1]	λems (nm) [1]	φF (%) fluorescence quantum yield [1]	logP [2]	IC50 [3, 4]	IC50 [3, 5]	Lipid peroxidation (U118MG cells)	Lipid peroxidation (U87MG cells)
c1cc2nc3ccc(=[N+]4CCC4)cc-3[se]c2cc1N1CCC1 [NSeAze]	15,300 M^–1 cm^–1	671 nm	695 nm	8.2%	0.81	< 1 µM	129 ± 5.1 µM	245.24 ± 5.92%	309.64 ± 13.20%
c1cc2nc3ccc(=[N+]4CCOCC4)cc-3[se]c2cc1N1CCOCC1 [NSeMorph]	16,600 M^–1 cm^–1	671 nm	717 nm	1.1%	-0.42	> 20 µM	> 500 µM	244.22 ± 2.38%	216.73 ± 3.98%
